Measured values reported in ChEMBL document CHEMBL1124978, “Direct C-glycosylation of guanine analogues: the synthesis and antiviral activity of certain 7- and 9-deazaguanine C-nucleosides” (1990).

Tests used:
Type in all cases: functional
Settings in all cases: route intraperitoneal
Mus musculus [1] = experiment: Tested against Forest virus infection in mice at dose 100 mg/kg administered intraperitoneally in experiment 2
Mus musculus [2] = experiment: Tested against Forest virus infection in mice at dose 100 mg/kg administered intraperitoneally in experiment 3; 11/12(92)
Mus musculus [3] = experiment: Tested against Forest virus infection in mice at dose 100 mg/kg administered intraperitoneally in experiment 2; 11/12(92)
Mus musculus [4] = experiment: Tested against Forest virus infection in mice at dose 100 mg/kg administered intraperitoneally in experiment 1
Mus musculus [5] = experiment: Tested against Forest virus infection in mice at dose 100 mg/kg administered intraperitoneally in experiment 3
Mus musculus [6] = experiment: Tested against Forest virus infection in mice at dose 100 mg/kg administered intraperitoneally in experiment 1; 9/12(75)
Mus musculus [7] = experiment: Tested against Forest virus infection in mice at dose 100 mg/kg administered intraperitoneally
Mus musculus [8] = experiment: Tested against Forest virus infection in mice at dose 100 mg/kg administered intraperitoneally; 10/12(83)
Mus musculus [9] = experiment: Tested against Forest virus infection in mice at dose 100 mg/kg administered intraperitoneally; 1/12(8)
Mus musculus [10] = experiment: Tested against Forest virus infection in mice at dose 100 mg/kg administered intraperitoneally; 7/12(58)
Mus musculus [11] = experiment: Tested against Forest virus infection in mice at dose 100 mg/kg administered intraperitoneally; 0/12(0)

**Q.** Which Mean survival time (Mus musculus [1]) does the source give for `Nc1nc(=O)c2sc(=O)n([C@@H]3O[C@H](CO)[C@@H](O)[C@H]3O)c2[nH]1` [ISATORIBINE] here?
**A.** Its Mean survival time is 10 days.

**Q.** And the Survivors / total (Mus musculus [2])?
**A.** Its Survivors / total is 91.7%.

**Q.** And the Survivors / total (Mus musculus [3])?
**A.** Its Survivors / total is 91.7%.

**Q.** What about the Mean survival time (Mus musculus [4]) of the same compound?
**A.** Its Mean survival time is 8.3 days.

**Q.** What about the Mean survival time (Mus musculus [5]) of the same compound?
**A.** The Mean survival time was 9 days.

**Q.** What about the Survivors / total (Mus musculus [6]) of the same compound?
**A.** The Survivors / total was 75%.

**Q.** Which Mean survival time (Mus musculus [7]) does the source give for `CN1C(Cl)=C([C@@H]2O[C@H](CO)[C@@H](O)[C@H]2O)C2=NC(N)=NC(=O)C21` (stereo partly specified) here?
**A.** Its Mean survival time is 11 days.

**Q.** And the Survivors / total (Mus musculus [8])?
**A.** The Survivors / total was 10%.

**Q.** How did the Mean survival time (Mus musculus [7]) turn out when `CN1C=C([C@@H]2O[C@H](CO)[C@@H](O)[C@H]2O)C2=NC(N)=NC(=O)C21` (stereo partly specified) was run?
**A.** The Mean survival time was 8.1 days.

**Q.** What about the Survivors / total (Mus musculus [9]) of the same compound?
**A.** The Survivors / total was 8.33%.

**Q.** For `CN1C(Br)=C([C@@H]2O[C@H](CO)[C@@H](O)[C@H]2O)C2=NC(N)=NC(=O)C21` (stereo partly specified), which Mean survival time (Mus musculus [7]) is on record?
**A.** The Mean survival time was 7 days.

**Q.** And the Survivors / total (Mus musculus [10])?
**A.** Its Survivors / total is 7%.

**Q.** Which Mean survival time (Mus musculus [7]) does the source give for `NC1=NC(=O)C2NC=C([C@@H]3O[C@H](CO)[C@@H](O)[C@H]3O)C2=N1` (stereo partly specified) here?
**A.** The Mean survival time was 7.3 days.

**Q.** And the Survivors / total (Mus musculus [9])?
**A.** Its Survivors / total is 8.33%.

**Q.** Which results are given for `CC1=C([C@@H]2O[C@H](CO)[C@@H](O)[C@H]2O)C2C(=O)N=C(N)N=C2N1` (stereo partly specified)?
**A.** Survivors / total (Mus musculus [11]): 0%; Mean survival time (Mus musculus [7]): 7.2 days
